Results: ChEMBL document CHEMBL1201862, “PubChem BioAssay data set” (2004)
Calls of active or inactive are those of the source.

How the values were obtained:
[1] = Luminescence Cell-Based Dose Retest to Confirm Inhibitors of Cancer Stem Cells. [Related pubchem assays (depositor defined):AID2717, AID2721]; type: functional; details: Homo sapiens
[2] = cytotoxicity in HMLE control line with eGFP shRNA, dose response, counter-screen for HMLE_sh_ECad selective toxicity project, cell-based, HMLE_sh_eGFP, luminescence (AID 463074); type: functional, Homo sapiens;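 further: HMLE human mammary epithelial cells expressing control shRNA against eGFP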
[3] = target: T1, Runt-related transcription factor 1/Core-binding factor subunit beta (Homo sapiens, UniProt Q01196+Q13951); experiment: inhibitors of RUNX1 Runt–CBFb-SMMHC binding, primary screen, biochemical, FRET, Cerulean-Runt, Venus-CBFb-SMMHC, uHTS (AID 1434); type: protein assay;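 further: partner is the CBFb-SMMHC leukemia fusion protein rather than wild-type CBFb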
[4] = target: T1, Runt-related transcription factor 1/Core-binding factor subunit beta; experiment: inhibitors of RUNX1 Runt–CBFb-SMMHC binding, biochemical, TR-FRET (AID 1438); type: protein assay
[5] = target: Intestinal-type alkaline phosphatase (Mus musculus, UniProt P24822); experiment: PubChem AID 488874; type: functional
[6] = target: T2, Intestinal-type alkaline phosphatase (Homo sapiens, UniProt P09923); experiment: human intestinal alkaline phosphatase activators, dose response, biochemical, luminescence, uHTS hits (AID 463120); type: functional
[7] = target: T2, Intestinal-type alkaline phosphatase; experiment: human IAP activators, dose response, biochemical, luminescent, uHTS hits, set 2 (AID 488817); type: functional;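 further: potency of activators that raise enzyme activity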
[8] = target: T3, Alkaline phosphatase, tissue-nonspecific isozyme (Homo sapiens, UniProt P05186); experiment: TNAP enzyme activators, dose response, selectivity assay for human IAP activator project, biochemical, TNAP isozyme, human IAP uHTS hits (AID 488886); type: functional;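 further: potency of compounds raising TNAP activity as a selectivity check on IAP activators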
T3 sequence (P05186 whole entry): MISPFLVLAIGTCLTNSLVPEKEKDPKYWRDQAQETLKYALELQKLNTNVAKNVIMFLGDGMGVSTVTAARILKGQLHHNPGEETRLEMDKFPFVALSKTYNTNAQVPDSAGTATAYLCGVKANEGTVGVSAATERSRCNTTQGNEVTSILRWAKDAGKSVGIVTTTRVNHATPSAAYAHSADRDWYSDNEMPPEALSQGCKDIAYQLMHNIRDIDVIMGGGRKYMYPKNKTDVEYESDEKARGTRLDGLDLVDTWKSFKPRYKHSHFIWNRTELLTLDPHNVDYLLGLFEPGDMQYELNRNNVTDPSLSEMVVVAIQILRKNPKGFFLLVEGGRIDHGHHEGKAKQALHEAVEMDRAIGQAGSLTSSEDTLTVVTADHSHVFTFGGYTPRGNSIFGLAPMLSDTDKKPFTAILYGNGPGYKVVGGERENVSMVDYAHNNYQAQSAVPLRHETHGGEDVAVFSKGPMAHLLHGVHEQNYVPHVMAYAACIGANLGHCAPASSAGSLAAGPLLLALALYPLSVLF

[9] = target: T4, High affinity choline transporter 1 (Homo sapiens, UniProt Q9GZV3); experiment: CHT inhibitors, dose response, cell-based, 5-point CRC, membrane potential dye (AID 504840); type: functional
T4 sequence (Q9GZV3 whole entry): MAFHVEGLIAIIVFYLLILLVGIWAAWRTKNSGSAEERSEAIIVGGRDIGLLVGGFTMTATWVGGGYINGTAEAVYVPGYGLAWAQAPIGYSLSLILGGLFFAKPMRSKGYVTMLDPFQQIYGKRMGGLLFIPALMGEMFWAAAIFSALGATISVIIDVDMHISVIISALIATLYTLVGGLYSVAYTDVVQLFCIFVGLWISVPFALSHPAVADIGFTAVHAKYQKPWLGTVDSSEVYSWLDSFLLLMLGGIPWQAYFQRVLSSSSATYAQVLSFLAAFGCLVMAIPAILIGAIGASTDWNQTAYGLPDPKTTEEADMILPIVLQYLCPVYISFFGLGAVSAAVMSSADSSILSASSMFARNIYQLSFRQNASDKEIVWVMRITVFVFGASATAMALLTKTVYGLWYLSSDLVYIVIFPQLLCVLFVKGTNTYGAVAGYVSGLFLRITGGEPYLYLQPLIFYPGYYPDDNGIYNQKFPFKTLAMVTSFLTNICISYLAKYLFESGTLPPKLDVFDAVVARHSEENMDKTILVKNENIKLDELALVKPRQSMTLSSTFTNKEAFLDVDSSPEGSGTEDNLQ

Tumor necrosis factor = Tumor necrosis factor (Homo sapiens, UniProt P01375); experiment: TNFa-triggered NF-kB activation inhibitors, SAR follow-up, cell-based, revised (AID 2337); type: functional
[10] = target: T5, Nucleotide-binding oligomerization domain-containing protein 1 (Homo sapiens, UniProt Q9Y239); experiment: NOD1 signaling inhibitors, SAR follow-up, revised (AID 2333); type: functional
T5 sequence (Q9Y239 whole entry): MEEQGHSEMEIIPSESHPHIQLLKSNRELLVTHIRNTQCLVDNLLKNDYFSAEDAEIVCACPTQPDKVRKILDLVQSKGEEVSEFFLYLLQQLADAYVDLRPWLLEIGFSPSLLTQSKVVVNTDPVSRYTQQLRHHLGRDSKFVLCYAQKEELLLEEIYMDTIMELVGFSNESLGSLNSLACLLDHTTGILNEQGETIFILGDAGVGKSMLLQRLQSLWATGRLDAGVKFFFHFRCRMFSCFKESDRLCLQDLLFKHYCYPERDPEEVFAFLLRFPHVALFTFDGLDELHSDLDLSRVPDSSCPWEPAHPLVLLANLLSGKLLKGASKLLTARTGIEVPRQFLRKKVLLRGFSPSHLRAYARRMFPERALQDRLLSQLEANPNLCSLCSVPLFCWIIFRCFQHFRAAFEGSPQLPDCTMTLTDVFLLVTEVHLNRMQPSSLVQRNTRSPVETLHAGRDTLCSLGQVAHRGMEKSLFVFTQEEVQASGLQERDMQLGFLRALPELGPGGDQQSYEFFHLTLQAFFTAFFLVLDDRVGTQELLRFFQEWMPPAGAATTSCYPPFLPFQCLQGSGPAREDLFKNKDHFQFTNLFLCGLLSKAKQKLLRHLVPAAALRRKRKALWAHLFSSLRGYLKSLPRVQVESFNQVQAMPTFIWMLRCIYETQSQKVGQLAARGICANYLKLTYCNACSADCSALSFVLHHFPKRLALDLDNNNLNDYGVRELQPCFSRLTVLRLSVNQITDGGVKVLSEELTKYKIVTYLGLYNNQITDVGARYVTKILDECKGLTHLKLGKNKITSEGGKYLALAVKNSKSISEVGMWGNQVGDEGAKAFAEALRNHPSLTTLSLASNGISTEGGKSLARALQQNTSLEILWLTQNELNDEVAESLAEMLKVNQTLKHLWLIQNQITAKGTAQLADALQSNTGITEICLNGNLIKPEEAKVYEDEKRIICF

[11] = ZM109 Env clade C HIV-1 fusion inhibitors, dose response, HeLa effector, CEM target cells, luciferase, cherry-pick (AID 652058); type: functional, cell-based
[12] = inhibitors of clade B AD8 Env fusion, dose response, cell-based, cherry-pick (AID 652062); type: functional;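 further: luciferase signal from cell-cell fusion driven by HIV-1 clade B AD8 Env; potency is for inhibitors of fusion seen as a drop in luminescence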
[13] = target: T6, COUP transcription factor 2 (Homo sapiens, UniProt P24468); experiment: Luminescence-based cell-based high throughput dose response assay to identify inhibitors of COUP-TFII (NR2F2).; type: functional;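 further: HEK293 cells transiently cotransfected with COUP-TFII expression vector and reporter; luciferase reporter luminescence driven by COUP-TFII from the pX2-168 reporter plasmid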
T6 sequence (P24468 whole entry): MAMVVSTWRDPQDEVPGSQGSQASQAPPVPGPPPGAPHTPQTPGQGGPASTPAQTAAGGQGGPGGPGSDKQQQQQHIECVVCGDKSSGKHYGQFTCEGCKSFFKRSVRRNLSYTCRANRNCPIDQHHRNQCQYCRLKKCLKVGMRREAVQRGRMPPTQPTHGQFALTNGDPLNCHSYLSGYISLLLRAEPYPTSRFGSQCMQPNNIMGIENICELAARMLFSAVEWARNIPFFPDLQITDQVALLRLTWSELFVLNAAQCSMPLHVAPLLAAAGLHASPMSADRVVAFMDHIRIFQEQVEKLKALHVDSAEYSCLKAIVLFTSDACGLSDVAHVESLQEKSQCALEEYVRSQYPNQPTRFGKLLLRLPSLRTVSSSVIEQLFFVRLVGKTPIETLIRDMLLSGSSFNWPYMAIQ

HEK293 = experiment: cells; details: Homo sapiens;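 further: cells exposed to compound for 14 hours overnight before viability readout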
[14] = target: Glyceraldehyde-3-phosphate dehydrogenase (Homo sapiens, UniProt P04406)
[15] = target: Alkaline phosphatase, placental type (Homo sapiens, UniProt P05187); experiment: PLAP enzyme inhibitors, confirmation, biochemical, luminescence (AID 1512); type: functional
[16] = target: T3, Alkaline phosphatase, tissue-nonspecific isozyme; experiment: human TNAP enzyme inhibitors, SAR follow-up, biochemical, luminescent, dose response (AID 1056)
[17] = target: T7, Replicative DNA helicase DnaB (Mycobacterium tuberculosis, UniProt P9WMR3); experiment: DnaB intein splicing inhibitors, dose response, biochemical, cell-free fluorescence (AID 449749); type: functional
T7 sequence (P9WMR3 whole entry): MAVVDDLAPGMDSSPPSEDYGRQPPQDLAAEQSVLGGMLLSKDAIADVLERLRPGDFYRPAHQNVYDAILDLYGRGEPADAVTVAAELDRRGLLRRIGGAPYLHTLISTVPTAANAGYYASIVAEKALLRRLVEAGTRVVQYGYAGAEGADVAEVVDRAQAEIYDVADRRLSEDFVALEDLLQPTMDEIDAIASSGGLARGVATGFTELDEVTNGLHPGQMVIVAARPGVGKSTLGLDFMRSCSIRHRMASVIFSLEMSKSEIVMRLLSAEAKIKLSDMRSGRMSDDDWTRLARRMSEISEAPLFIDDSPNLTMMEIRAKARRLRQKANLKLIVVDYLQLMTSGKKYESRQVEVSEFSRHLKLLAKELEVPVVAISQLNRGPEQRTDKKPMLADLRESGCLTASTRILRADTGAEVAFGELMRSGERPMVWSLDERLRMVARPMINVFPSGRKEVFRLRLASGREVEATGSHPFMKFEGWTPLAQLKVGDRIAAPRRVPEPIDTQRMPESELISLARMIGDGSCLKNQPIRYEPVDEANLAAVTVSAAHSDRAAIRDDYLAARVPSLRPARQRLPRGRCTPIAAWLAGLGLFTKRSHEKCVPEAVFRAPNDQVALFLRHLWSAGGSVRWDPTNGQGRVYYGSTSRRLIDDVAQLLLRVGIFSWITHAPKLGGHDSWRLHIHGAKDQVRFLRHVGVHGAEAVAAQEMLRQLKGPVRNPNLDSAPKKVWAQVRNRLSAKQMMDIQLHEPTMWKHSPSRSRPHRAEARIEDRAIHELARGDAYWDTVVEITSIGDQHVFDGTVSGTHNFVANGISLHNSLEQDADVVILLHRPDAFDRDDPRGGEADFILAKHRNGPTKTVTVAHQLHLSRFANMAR

Protein RecA = target: T8, Protein RecA (Mycobacterium tuberculosis, UniProt P9WHJ3); experiment: Fluorescence Cell-Free Homogeneous Dose Retest to Identify Inhibitors of RecA-Intein Splicing Activity. [Related pubchem assays (depositor defined):AID2097, AID2223, AID489010, AID492950]; type: functional
T8 sequence (P9WHJ3 whole entry): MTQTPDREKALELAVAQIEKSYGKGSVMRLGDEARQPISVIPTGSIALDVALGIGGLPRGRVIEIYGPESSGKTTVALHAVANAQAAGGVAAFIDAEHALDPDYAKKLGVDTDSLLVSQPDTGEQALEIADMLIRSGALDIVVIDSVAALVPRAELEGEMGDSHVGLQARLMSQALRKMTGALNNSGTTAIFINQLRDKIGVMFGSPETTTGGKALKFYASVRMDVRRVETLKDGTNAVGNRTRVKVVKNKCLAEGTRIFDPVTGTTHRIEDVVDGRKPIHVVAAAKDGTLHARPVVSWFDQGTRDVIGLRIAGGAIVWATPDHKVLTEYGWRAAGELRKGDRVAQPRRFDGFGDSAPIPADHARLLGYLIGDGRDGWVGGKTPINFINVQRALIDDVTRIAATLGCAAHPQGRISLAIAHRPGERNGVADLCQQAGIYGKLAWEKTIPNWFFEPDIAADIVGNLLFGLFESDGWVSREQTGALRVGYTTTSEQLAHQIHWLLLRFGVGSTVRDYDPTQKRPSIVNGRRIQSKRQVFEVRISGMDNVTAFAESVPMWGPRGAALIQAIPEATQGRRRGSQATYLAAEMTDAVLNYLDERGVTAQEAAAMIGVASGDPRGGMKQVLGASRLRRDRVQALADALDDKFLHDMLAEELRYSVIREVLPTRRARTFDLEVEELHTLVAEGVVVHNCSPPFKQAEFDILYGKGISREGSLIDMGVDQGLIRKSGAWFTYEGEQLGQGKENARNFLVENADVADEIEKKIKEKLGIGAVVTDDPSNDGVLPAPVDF

Intestinal-type alkaline phosphatase (Mus musculus, UniProt P24822), sequence (P24822 whole entry): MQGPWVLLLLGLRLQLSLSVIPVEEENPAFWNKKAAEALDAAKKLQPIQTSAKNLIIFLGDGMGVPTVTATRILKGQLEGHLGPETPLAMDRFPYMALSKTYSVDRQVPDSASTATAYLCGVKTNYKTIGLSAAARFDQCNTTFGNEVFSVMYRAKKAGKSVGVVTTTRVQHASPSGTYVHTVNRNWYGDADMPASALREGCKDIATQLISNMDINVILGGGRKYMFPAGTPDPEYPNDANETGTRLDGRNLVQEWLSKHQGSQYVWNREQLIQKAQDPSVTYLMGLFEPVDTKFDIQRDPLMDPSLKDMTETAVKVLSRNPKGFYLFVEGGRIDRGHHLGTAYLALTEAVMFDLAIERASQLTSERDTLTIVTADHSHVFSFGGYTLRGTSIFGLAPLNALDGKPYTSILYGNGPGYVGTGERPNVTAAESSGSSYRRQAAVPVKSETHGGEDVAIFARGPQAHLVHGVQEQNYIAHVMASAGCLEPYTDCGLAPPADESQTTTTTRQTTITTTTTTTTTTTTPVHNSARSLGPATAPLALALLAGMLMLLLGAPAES
T2 sequence (P09923 whole entry): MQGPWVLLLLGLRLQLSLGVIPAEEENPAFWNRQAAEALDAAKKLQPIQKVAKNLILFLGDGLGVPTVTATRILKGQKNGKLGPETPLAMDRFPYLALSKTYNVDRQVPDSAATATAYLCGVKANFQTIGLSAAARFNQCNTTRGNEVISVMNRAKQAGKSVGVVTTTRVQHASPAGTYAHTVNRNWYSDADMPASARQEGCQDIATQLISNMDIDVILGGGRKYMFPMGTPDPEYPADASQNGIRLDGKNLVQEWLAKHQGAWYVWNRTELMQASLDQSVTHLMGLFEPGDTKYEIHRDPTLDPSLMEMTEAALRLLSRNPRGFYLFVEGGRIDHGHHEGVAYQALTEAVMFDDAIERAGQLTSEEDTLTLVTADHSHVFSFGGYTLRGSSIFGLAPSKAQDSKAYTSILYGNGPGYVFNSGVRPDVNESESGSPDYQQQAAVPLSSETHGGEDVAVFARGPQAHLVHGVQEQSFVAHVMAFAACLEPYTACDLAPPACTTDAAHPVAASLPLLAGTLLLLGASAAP
T1 sequence (Q01196 whole entry, the tested form may be a part): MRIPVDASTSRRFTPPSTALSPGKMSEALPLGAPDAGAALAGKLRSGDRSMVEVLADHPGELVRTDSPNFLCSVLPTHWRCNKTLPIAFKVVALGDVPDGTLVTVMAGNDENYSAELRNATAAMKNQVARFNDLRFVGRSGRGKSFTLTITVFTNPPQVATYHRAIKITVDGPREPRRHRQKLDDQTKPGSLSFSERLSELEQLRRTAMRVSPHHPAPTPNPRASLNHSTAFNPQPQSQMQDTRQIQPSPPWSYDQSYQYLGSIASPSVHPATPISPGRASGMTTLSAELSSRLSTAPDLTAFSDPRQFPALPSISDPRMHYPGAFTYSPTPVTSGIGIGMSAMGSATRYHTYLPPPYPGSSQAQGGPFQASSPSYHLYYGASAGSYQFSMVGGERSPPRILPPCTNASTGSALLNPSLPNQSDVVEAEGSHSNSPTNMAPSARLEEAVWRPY
T1 sequence (Q13951 whole entry, the tested form may be a part): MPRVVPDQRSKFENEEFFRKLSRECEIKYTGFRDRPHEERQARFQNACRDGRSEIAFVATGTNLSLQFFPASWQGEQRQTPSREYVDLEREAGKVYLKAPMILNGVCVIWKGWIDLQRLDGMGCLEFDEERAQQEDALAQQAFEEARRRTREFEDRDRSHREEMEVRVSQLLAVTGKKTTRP
Tumor necrosis factor, sequence (P01375 whole entry, the tested form may be a part): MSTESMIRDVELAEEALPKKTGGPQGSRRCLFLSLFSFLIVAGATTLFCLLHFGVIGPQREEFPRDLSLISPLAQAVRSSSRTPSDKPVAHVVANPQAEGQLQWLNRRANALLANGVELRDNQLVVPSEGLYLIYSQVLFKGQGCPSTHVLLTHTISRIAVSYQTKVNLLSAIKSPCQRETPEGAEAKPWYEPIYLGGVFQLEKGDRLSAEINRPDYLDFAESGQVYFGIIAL
Glyceraldehyde-3-phosphate dehydrogenase, sequence (P04406 whole entry): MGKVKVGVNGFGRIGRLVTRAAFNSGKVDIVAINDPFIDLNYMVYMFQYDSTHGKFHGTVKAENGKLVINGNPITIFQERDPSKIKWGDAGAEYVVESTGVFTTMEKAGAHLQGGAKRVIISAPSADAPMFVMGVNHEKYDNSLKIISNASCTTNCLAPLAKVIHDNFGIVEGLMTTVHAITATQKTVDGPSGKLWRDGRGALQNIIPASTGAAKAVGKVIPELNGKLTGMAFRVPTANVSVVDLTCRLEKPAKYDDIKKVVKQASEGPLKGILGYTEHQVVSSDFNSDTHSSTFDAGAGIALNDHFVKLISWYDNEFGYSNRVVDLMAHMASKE
Alkaline phosphatase, placental type, sequence (P05187 whole entry): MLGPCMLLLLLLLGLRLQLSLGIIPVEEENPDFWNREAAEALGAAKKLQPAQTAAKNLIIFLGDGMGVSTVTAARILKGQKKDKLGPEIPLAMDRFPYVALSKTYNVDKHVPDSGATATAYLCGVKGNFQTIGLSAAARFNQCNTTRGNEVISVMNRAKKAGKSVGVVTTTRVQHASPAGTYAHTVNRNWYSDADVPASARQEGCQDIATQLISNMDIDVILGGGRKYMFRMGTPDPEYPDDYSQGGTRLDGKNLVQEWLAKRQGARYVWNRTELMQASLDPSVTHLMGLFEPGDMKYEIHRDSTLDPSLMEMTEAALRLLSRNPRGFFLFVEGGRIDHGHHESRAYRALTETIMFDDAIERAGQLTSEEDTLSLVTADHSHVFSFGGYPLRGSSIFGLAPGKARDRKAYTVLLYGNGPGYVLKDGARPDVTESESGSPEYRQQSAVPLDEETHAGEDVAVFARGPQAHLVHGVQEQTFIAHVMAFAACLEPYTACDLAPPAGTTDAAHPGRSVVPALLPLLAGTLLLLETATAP

CC(=O)c1cccc(NS(=O)(=O)c2cc(-c3cnc(C4CC4)o3)ccc2C)c1
AC50 [1]: 1.03 µM (active)
AC50 [2]: 25 µM (active)

CCCc1cc2c(OC(=O)CC)c(-c3ccc(C(=O)OCC)o3)c(=O)oc2cc1OC
IC50 [3]: 5.51 µM (active)
IC50 [4]: 7.94 µM (active)

CCOc1ccc(CC(=O)NNC(=S)NC2CCCCC2)cc1OCC
IC50 [5]: 40.9 µM (active)
EC50 [6]: 18.7 µM (active)
EC50 [7]: 17.8 µM (active)
EC50 [8]: 17.2 µM (active)

O=C(c1cccc(OC2CCN(Cc3ccc(F)cc3Cl)CC2)c1)N1CCCC1
IC50 [9]: 18.2 µM (active)

Cc1cc(C(=O)NC2CCCc3c2cnn3-c2ccc(C(C)(C)C)cc2)nn1C (configuration not stated)
IC50 (Tumor necrosis factor): 1.44 µM (active)
IC50 [10]: 1.33 µM (active)
AC50 [11]: 1.86 µM (active)
AC50 [12]: 4.61 µM (active)
IC50 [13]: 5.2 µM (active)
IC50 (HEK293): 12.2 µM (active)

O=C(c1cccc(Br)c1)c1coc2ccc(O)cc12
AC50 [1]: 0.913 µM (active)
AC50 [2]: 23.1 µM (active)

CC1CCN(CCNC(=O)C2CCCN(S(=O)(=O)c3cccc4nsnc34)C2)CC1 (configuration not stated)
IC50 [9]: 15.8 µM (active)

CN(C)C(=O)N1CCN(S(=O)(=O)c2ccc3ccccc3c2)CC1
IC50 [9]: 12.9 µM (active)

CCCc1c(O)oc2nnc(C)c-2c1C
IC50 [14]: > 100 µM (not active)
IC50 [15]: > 100 µM (inactive)
IC50 [16]: > 100 µM (inactive)
AC50 [17]: 23.6 µM (active)
EC50 (Protein RecA): 14.8 µM (active)

CSCCC(NS(=O)(=O)c1ccc(C)cc1)C(=O)NNC(=O)c1csc(N2CCOCC2)n1 (configuration not stated)
IC50 [5]: 66.6 µM (active)
EC50 [6]: 9.84 µM (active)
EC50 [7]: 14.1 µM (active)
EC50 [8]: 19.1 µM (active)

Cc1cc(=O)[nH]c(-n2[nH]c3c(c2=O)CCCC3)n1
IC50 [5]: > 100 µM (inactive)
EC50 [6]: 9.58 µM (active)
EC50 [7]: 19.8 µM (active)
EC50 [8]: 12.2 µM (active)
